Data: patent US20240059698A1 (Accutar Biotechnology Inc., priority 2022, published 2024)

Key:
[1] = tested on: HCC827-SVD cells (human EGFR exon 20 insertion mutant D770_N771insSVD); test: Cell growth inhibition (CellTiter-Glo), HCC827-SVD; format: cell-based; details: 72 h, 3 days
Description: (§1) Generation of HCC827-SVD, HCC827-ASV, and HCC827-YVMA cell lines. The HCC827-SVD cell line was generated by first transducing HCC827 cells (ATCC) with lentiviral particles expressing codon-optimized human EGFR exon 20 insertion mutant D770_N771insSVD, and then selecting under 5 µg/mL puromycin treatment for a week. The resulting cells were further transduced with lentiviral particles carrying EGFR sgRNA and CAS9 to knockout the endogenous alleles of EGER and then selected under 500 µg/mL hygromycin B treatment for two weeks. The limiting dilution approach was used to subsequently generate the single clone of the HCC827-SVD stable cell line. Endogenous EGFR knockout was confirmed by Sanger sequencing of cell genomic DNA, and expression of exogenous mutant EGFR was verified by Western blot analysis.
(§2) 2. Cell Growth Inhibition for HCC827, HCC827-SVD, HCC827-ASV, HCC827-YVMA, and A431.
(§3) HCC827(ATCC), HCC827-SVD, HCC827-ASV, and HCC827-YVMA cells were seeded in 96-well plates at 5000 cells/well in 90 μL of RPMI growth medium containing 10% FBS and 1% Penicillin Streptomycin. A431 (ATCC) cells were seeded in 96-well plates at 5000 cells/well in 90 μL of DMEM growth medium containing 10% FBS and 1% Penicillin Streptomycin. Cells were incubated at 37° C. overnight and then administered with 10 μL 10× test compounds prepared in the growth medium at various concentrations. After administration of the compounds, cells were incubated at 37° C. for 3 days. Before the CellTiter-Glo assay, the plates were equilibrated at room temperature for approximately 30 minutes. 100 ul of CellTiter-Glo reagent (Promega) was added to each well. The plates were then incubated at room temperature for 10 minutes and luminescence was recorded by the EnSight® multimode plate reader (PerkinElmer). Table 7 listed selected compounds in cellular growth assay.

[2] = tested on: HCC827-YVMA cells (human ERBB2 exon20 insertion mutant A775_G776ins YVMA); test: Cell growth inhibition (CellTiter-Glo), HCC827-YVMA; format: cell-based; details: 72 h, HCC827-YVMA cells, 3 days, CellTiter-Glo, read-out: Cell growth inhibition, GI50 (nM) HCC827-YVMA
Description: as §1
HCC827-ASV and HCC827-YVMA cell lines were generated in a similar approach as HCC827-SVD, except that HCC827 cells (ATCC) were first transduced with lentiviral particles expressing codon-optimized human EGFR exon 20 insertion mutant V769_D770insASV and human ERBB2 exon20 insertion mutant A775_G776ins YVMA, respectively.
as §2, §3

Structure (SMILES) | GI50 [1] | GI50 [2]
C=CC(=O)N1CCC(c2c[nH]c3ncnc(Nc4ccc(Oc5ccnc(Nc6ccccn6)n5)cc4F)c23)CC1 [Compound 44, 1-(4-(4-((2-fluoro-4-((2-(pyridin-2-ylamino)pyrimidin-4-yl)oxy)phenyl)amino)-7H-pyrrolo[2,3-d]pyrimidin-5-yl)piperidin-1-yl)prop-2-en-1-one] | 200 to 1000 nM | 200 to 1000 nM
C=CC(=O)N1CCC(c2c[nH]c3ncnc(Nc4ccc(Oc5ccnc(NCC(C)C)n5)cc4F)c23)CC1 [Compound 45, 1-(4-(4-((2-fluoro-4-((2-(isoButylamino)pyrimidin-4-yl)oxy)phenyl)amino)-7H-pyrrolo[2,3-d]pyrimidin-5-yl)piperidin-1-yl)prop-2-en-1-one] | 50 to 200 nM | 50 to 200 nM
C=CC(=O)N1CCC(c2c[nH]c3ncnc(Nc4ccc(Oc5ccnc6cc[nH]c56)c(Cl)c4)c23)CC1 [Compound 46, 1-(4-(4-((4-((1H-pyrrolo[3,2-b]pyridin-7-yl)oxy)-3-chlorophenyl)amino)-7H-pyrrolo[2,3-d]pyrimidin-5-yl)piperidin-1-yl)prop-2-en-1-one] | 50 to 200 nM | 50 to 200 nM
C=CC(=O)N1CCC(c2c[nH]c3ncnc(Nc4ccc(OCc5cnc(Cn6cncn6)nc5)c(Cl)c4)c23)CC1 [Compound 47, 1-(4-(4-((4-((2-((1H-1,2,4-triazol-1-yl)methyl)pyrimidin-5-yl)methoxy)-3-chlorophenyl)amino)-7H-pyrrolo[2,3-d]pyrimidin-5-yl)piperidin-1-yl)prop-2-en-1-one] | < 50 nM | 50 to 200 nM
C=CC(=O)N1CCC(c2c[nH]c3ncnc(Nc4ccc(Oc5ccnc(-c6ccn(C)n6)c5)c(Cl)c4)c23)CC1 [Compound 48, 1-(4-(4-((3-chloro-4-((2-(1-methyl-1H-pyrazol-3-yl)pyridin-4-yl)oxy)phenyl)amino)-7H-pyrrolo[2,3-d]pyrimidin-5-yl)piperidin-1-yl)prop-2-en-1-one] | 50 to 200 nM | 50 to 200 nM
C=CC(=O)N1CCC(c2c[nH]c3ncnc(Nc4ccc(Oc5ccnc(Nc6ccccn6)c5)c(Cl)c4)c23)CC1 [Compound 49, 1-(4-(4-((3-chloro-4-((2-(pyridin-2-ylamino)pyridin-4-yl)oxy)phenyl)amino)-7H-pyrrolo[2,3-d]pyrimidin-5-yl)piperidin-1-yl)prop-2-en-1-one] | 50 to 200 nM | < 50 nM
C=CC(=O)N1CCC(c2c[nH]c3ncnc(Nc4ccc(Oc5ccnc(N6CCC(C(F)(F)F)C6)n5)cc4F)c23)CC1 (stereo not drawn) [Compound 50, 1-(4-(4-((2-fluoro-4-((2-(3-(trifluoromethyl)pyrrolidin-1-yl)pyrimidin-4-yl)oxy)phenyl)amino)-7H-pyrrolo[2,3-d]pyrimidin-5-yl)piperidin-1-yl)prop-2-en-1-one] | 200 to 1000 nM | 50 to 200 nM
C=CC(=O)N1CCC(c2c[nH]c3ncnc(Nc4ccc(Oc5ccnc(C6CCC6)c5)cc4F)c23)CC1 [Compound 51, 1-(4-(4-((4-((2-cycloButylpyridin-4-yl)oxy)-2-fluorophenyl)amino)-7H-pyrrolo[2,3-d]pyrimidin-5-yl)piperidin-1-yl)prop-2-en-1-one] | 200 to 1000 nM | 200 to 1000 nM
C=CC(=O)N1CCC(c2c[nH]c3ncnc(Nc4ccc(OCc5nncs5)c(Cl)c4)c23)CC1 [Compound 52, 1-(4-(4-((4-((1,3,4-thiadiazol-2-yl)methoxy)-3-chlorophenyl)amino)-7H-pyrrolo[2,3-d]pyrimidin-5-yl)piperidin-1-yl)prop-2-en-1-one] | < 50 nM | < 50 nM
C=CC(=O)N1CCC(c2c[nH]c3ncnc(Nc4ccc(Oc5ccnc(-c6cccc(C(F)(F)F)c6)c5)cc4F)c23)CC1 [Compound 53, 1-(4-(4-((2-fluoro-4-((2-(3-(trifluoromethyl)phenyl)pyridin-4-yl)oxy)phenyl)amino)-7H-pyrrolo[2,3-d]pyrimidin-5-yl)piperidin-1-yl)prop-2-en-1-one] | 200 to 1000 nM | 200 to 1000 nM
C=CC(=O)N1CCC(c2c[nH]c3ncnc(Nc4ccc(CN(C)c5cnccn5)c(Cl)c4)c23)CC1 [Compound 54, 1-(4-(4-((3-chloro-4-((methyl(pyrazin-2-yl)amino)methyl)phenyl)amino)-7H-pyrrolo[2,3-d]pyrimidin-5-yl)piperidin-1-yl)prop-2-en-1-one] | < 50 nM | < 50 nM
C=CC(=O)N1CCC(c2c[nH]c3ncnc(Nc4ccc(OCC(=O)NC(C)C)c(Cl)c4)c23)CC1 [Compound 55, 2-(4-((5-(1-acryloylpiperidin-4-yl)-7H-pyrrolo[2,3-d]pyrimidin-4-yl)amino)-2-chlorophenoxy)-N-isopropylacetamide] | < 50 nM | < 50 nM
C=CC(=O)N1CCC(c2c[nH]c3ncnc(Nc4ccc(Oc5ccnc(NC6(C)CC6)c5)cc4F)c23)CC1 [Compound 56, 1-(4-(4-((2-fluoro-4-((2-((1-methylcyclopropyl)amino)pyridin-4-yl)oxy)phenyl)amino)-7H-pyrrolo[2,3-d]pyrimidin-5-yl)piperidin-1-yl)prop-2-en-1-one] | 200 to 1000 nM | 200 to 1000 nM
C=CC(=O)N1CCC(c2c[nH]c3ncnc(Nc4ccc(Oc5ccnc(N6CCC(C)(F)C6)c5)cc4F)c23)CC1 (stereo not drawn) [Compound 57, 1-[4-[4-[2-fluoro-4-[[2-(3-fluoro-3-methyl-pyrrolidin-1-yl)-4-pyridyl]oxy]anilino]-7H-pyrrolo[2,3-d]pyrimidin-5-yl]-1-piperidyl]prop-2-en-1-one] | 200 to 1000 nM | 200 to 1000 nM
C=CC(=O)N1CCC(c2c[nH]c3ncnc(Nc4ccc(Oc5ccnc(NCC(F)(F)F)c5)cc4F)c23)CC1 [Compound 58, 1-(4-(4-((2-fluoro-4-((2-((2,2,2-trifluoroethyl)amino)pyridin-4-yl)oxy)phenyl)amino)-7H-pyrrolo[2,3-d]pyrimidin-5-yl)piperidin-1-yl)prop-2-en-1-one] | 200 to 1000 nM | 50 to 200 nM
C=CC(=O)N1CCC(c2c[nH]c3ncnc(Nc4ccc(Oc5ccnc(Nc6ncc[nH]6)c5)cc4F)c23)CC1 [Compound 59, 1-(4-(4-((4-((2-((1H-imidazol-2-yl)amino)pyridin-4-yl)oxy)-2-fluorophenyl)amino)-7H-pyrrolo[2,3-d]pyrimidin-5-yl)piperidin-1-yl)prop-2-en-1-one] | > 1000 nM | 50 to 200 nM
C=CC(=O)N1CCC(c2c[nH]c3ncnc(Nc4ccc(OCc5cnn6c5CCCC6)c(Cl)c4)c23)CC1 [Compound 60, 1-(4-(4-((3-chloro-4-((4,5,6,7-tetrahydropyrazolo[1,5-a]pyridin-3-yl)methoxy)phenyl)amino)-7H-pyrrolo[2,3-d]pyrimidin-5-yl)piperidin-1-yl)prop-2-en-1-one] | 50 to 200 nM | 200 to 1000 nM
C=CC(=O)N1CCC(c2c[nH]c3ncnc(Nc4ccc(Oc5ccnc(-n6cc(F)cn6)c5)cc4F)c23)CC1 [Compound 61, 1-(4-(4-((2-fluoro-4-((2-(4-fluoro-1H-pyrazol-1-yl)pyridin-4-yl)oxy)phenyl)amino)-7H-pyrrolo[2,3-d]pyrimidin-5-yl)piperidin-1-yl)prop-2-en-1-one] | > 1000 nM | 200 to 1000 nM
C=CC(=O)N1CCC(c2c[nH]c3ncnc(Nc4ccc(OCc5nc(CNc6ncn(C)n6)cs5)c(Cl)c4)c23)CC1 [Compound 62, 1-(4-(4-((3-chloro-4-((4-(((1-methyl-1H-1,2,4-triazol-3-yl)amino)methyl)thiazol-2-yl)methoxy)phenyl)amino)-7H-pyrrolo[2,3-d]pyrimidin-5-yl)piperidin-1-yl)prop-2-en-1-one] | 200 to 1000 nM | 50 to 200 nM
C=CC(=O)N1CCC(c2c[nH]c3ncnc(Nc4ccc(Oc5ccnc(N6C[C@H]7CCC[C@H]7C6)c5)cc4F)c23)CC1 [Compound 63, 1-(4-(4-((2-fluoro-4-((2-((3aR,6aS)-hexahydrocyclopenta[c]pyrrol-2(1H)-yl)pyridin-4-yl)oxy)phenyl)amino)-7H-pyrrolo[2,3-d]pyrimidin-5-yl)piperidin-1-yl)prop-2-en-1-one] | 200 to 1000 nM | 200 to 1000 nM
C=CC(=O)N1CCC(c2c[nH]c3ncnc(Nc4ccc(Oc5ccnc(C6CCOCC6)c5)cc4F)c23)CC1 [Compound 64, 1-(4-(4-((2-fluoro-4-((2-(tetrahydro-2H-pyran-4-yl)pyridin-4-yl)oxy)phenyl)amino)-7H-pyrrolo[2,3-d]pyrimidin-5-yl)piperidin-1-yl)prop-2-en-1-one] | > 1000 nM | 200 to 1000 nM
